Patent publication US20190365776A1, “THERAPEUTIC AGENT FOR OCULAR FUNDUS DISEASE” (KYUSHU UNIVERSITY, NATIONAL UNIVERSITY CORPORATION, priority 2013, published 2019)

Test system: b-END3 (bEND.3) mouse brain microvascular endothelial cells
Assay: Tight junction test: Claudin-5 immunostaining in b-END3 cells
Type: cell-based
Details: pretreatment 3 μM or 30 μM, 3 hours; VEGF 25 ng/mL or IL-6 10 ng/mL, 24 hours
Method: According to a conventional method, b-END3 (bEND.3: ATCC CRL-2299™) cells, which are mouse brain microvascular endothelial cells, were subcultured in 3.5 cm dishes (9×10^5 cells/dish), and a test was started from day 6 after subculture. […]
The cells after the test were subjected to immunostaining according to the following procedure to evaluate the expression of Claudin-5 or F-Actin. […] Then, a cover glass-sized cell sample was prepared by trimming with a cotton swab, enclosed with a Dako pen, blocked with 10% normal goat serum (10% normal goat serum ready-to-use (Invitrogen)) (30 min, ordinary temperature), and allowed to stand at 4° C. overnight. […]

C[C@H]1CNCCCN1S(=O)(=O)c1cccc2cncc(F)c12 [compound 1, (S)-(−)-1-(4-fluoro-5-isoquinolinesulfonyl)-2-methyl-1,4-homopiperazine]
Claudin-5 expression decreased by VEGF stimulation or IL-6 stimulation: improvement in Claudin-5 expression
